US11548855B2, “Pyrazole amide compound and application thereof, and fungicide” (Shandong United Pesticide Industry Co. Ltd., priority 2017, dated 2023)
Where two headings read alike, the source gives them in different places.

Assays:
Format in all cases: in vivo
[1] = test system: corn rust (Puccinia sorghi); test: Greenhouse pot test, corn rust; settings: Puccinia sorghi, 168 h, read-out: Control effect (%) Corn rust; for pest or weed control at 6.25 µg/mL: 6.25 mg/L; for pest or weed control at 25 µg/mL: 25 mg/L; for pest or weed control at 100 µg/mL: 100 mg/L; for pest or weed control at 1.5625 µg/mL: 1.5625 mg/L; for pest or weed control at 3.125 µg/mL: 3.1250 mg/L
Experimental: (§1) Test method: each of the test compounds in Table 1 was dispensed to 5 wt % emulsifiable concentrate (hereinafter referred to as 5% EC). The greenhouse pot test was used in each experiment, and the effective concentrations of each compound were illustrated in Table 1.
Corn rust: two-three leaf stage potted corn seedling with uniform growth was selected and made foliar spray treatment with 5% EC, the blank control sprayed with clean water was additionally arranged, three replicates were carried out. After 24 h, the leaves of the host plants were inoculated with sporangial suspensions of the fungi corn rust (Puccinia sorghi), the plants were stored in humidity chamber (temperature: lighting 25° C., dark 20° C., relative humidity 95-100%) and then transferred to greenhouse (25±1° C.) 24 h after infection. After 7 days, the screening results were investigated according to the disease incidence condition of blank control.
(§2) The investigation method: “Guidelines for the field efficacy trials of pesticides” was adopted as the grading standard, and the control effect in a unit of % was calculated based on the disease index. Disease index=Σ(number of diseased leaves at each grade×relative grade value)×100/(total number of leaves×9); Control effect (%)=(disease index of control−disease index of treated)×100/disease index of control;
(§3) The compounds provided by the present disclosure and some control compounds were tested by the same methods in the Test example 1, except that the effective concentrations of the compounds in this Test example are shown in Table 2.

[2] = test system: soybean rust (Phakopsora pacchyrhizi Sydow); test: Greenhouse pot test, soybean rust; settings: Glycine max, 168 h, read-out: Control effect (%) Soybean rust; for pest or weed control at 6.25 µg/mL: 6.25 mg/L; for pest or weed control at 25 µg/mL: 25 mg/L; for pest or weed control at 100 µg/mL: 100 mg/L; for pest or weed control at 1.5625 µg/mL: 1.5625 mg/L; for pest or weed control at 3.125 µg/mL: 3.1250 mg/L
Experimental: as §1
Soybean rust: two-leaf stage potted soybean seedling with uniform growth was selected and made foliar spray treatment with 5% EC, the blank control sprayed with clean water was additionally arranged, three replicates were carried out. After 24 h, the leaves of the host plants were inoculated with sporangial suspensions of the fungi soybean rust (Phakopsora pacchyrhizi Sydow), the plants were stored in humidity chamber (temperature 20-25° C., relative humidity>95%) and then transferred to greenhouse (25±1° C.) 8-16 h after infection. After 7 days, the screening results were investigated according to the disease incidence condition of blank control.
as §2, §3

[3] = test system: wheat powdery mildew (Erysiphe graminis); test: Greenhouse pot test, wheat powdery mildew; settings: Blumeria graminis, 168 h, read-out: Control effect (%) Wheat powdery mildew; for pest or weed control at 6.25 µg/mL: 6.25 mg/L; for pest or weed control at 25 µg/mL: 25 mg/L; for pest or weed control at 100 µg/mL: 100 mg/L; for pest or weed control at 1.5625 µg/mL: 1.5625 mg/L; for pest or weed control at 3.125 µg/mL: 3.1250 mg/L
Text: as §1
Wheat powdery mildew: two-leaf stage potted wheat seedling with uniform growth was selected and made foliar spray treatment with 5% EC, the blank control sprayed with clean water was additionally arranged, three replicates were carried out. After 24 h, the leaves of the host plants were inoculated by shake-down method with sporangial suspensions of the fungi wheat powdery mildew (Erysiphe graminis), the plants were stored in a greenhouse (25±1° C.). After 7 days, the screening results were investigated according to the disease incidence condition of blank control.
as §2, §3

[4] = test system: cucumber powdery mildew; test: Greenhouse pot test, cucumber powdery mildew; settings: for pest or weed control at 6.25 µg/mL / pest or weed control at 25 µg/mL / pest or weed control at 100 µg/mL: Cucumis sativus, 192 h, read-out: Control effect (%) Cucumber powdery mildew
Experimental: as §1
Cucumber powdery mildew: cucumber seedling in a true leaf period with uniform growth was selected, and dried in the shade for 24 h after spray treatment. Fresh cucumber powdery mildew spores on the cucumber leaves were collected and washed, and filtered through a double gauze to prepare a spores suspension with concentration of about 100,000/mL, then spray inoculation was applied. The test materials inoculated were moved into a greenhouse (lighting 21-23° C.), after 8 days, the grading investigation was carried out according to the disease incidence condition of blank control, and the control effect in a unit of % was calculated according to disease index.
as §2, §3

SMILES: Cn1nc(C(F)F)c(C(=O)Nc2ccccc2Oc2ccc(C(F)(F)F)cc2Br)c1F [Compound 2]
- pest or weed control at 6.25 µg/mL [1]: 98%
- pest or weed control at 25 µg/mL [1]: 100%
- pest or weed control at 100 µg/mL [1]: 100%
- pest or weed control at 6.25 µg/mL [2]: 96%
- pest or weed control at 25 µg/mL [2]: 100%
- pest or weed control at 100 µg/mL [2]: 100%
- pest or weed control at 6.25 µg/mL [3]: 70%
- pest or weed control at 25 µg/mL [3]: 75%
- pest or weed control at 100 µg/mL [3]: 85%
- pest or weed control at 6.25 µg/mL ([4]; greenhouse pot, 6.25 mg/L): 45%
- pest or weed control at 25 µg/mL ([4]; greenhouse pot, 25 mg/L): 55%
- pest or weed control at 100 µg/mL ([4]; greenhouse pot, 100 mg/L): 88%

SMILES: Cn1nc(C(F)F)c(C(=O)Nc2ccccc2Oc2ccc(C(F)(F)F)cc2I)c1F [Compound 3]
- pest or weed control at 6.25 µg/mL [1]: 75%
- pest or weed control at 25 µg/mL [1]: 100%
- pest or weed control at 100 µg/mL [1]: 100%
- pest or weed control at 6.25 µg/mL [2]: 85%
- pest or weed control at 25 µg/mL [2]: 100%
- pest or weed control at 100 µg/mL [2]: 100%
- pest or weed control at 6.25 µg/mL [3]: 65%
- pest or weed control at 25 µg/mL [3]: 80%
- pest or weed control at 100 µg/mL [3]: 80%
- pest or weed control at 6.25 µg/mL ([4]; greenhouse pot, 6.25 mg/L): 45%
- pest or weed control at 25 µg/mL ([4]; greenhouse pot, 25 mg/L): 70%
- pest or weed control at 100 µg/mL ([4]; greenhouse pot, 100 mg/L): 95%

SMILES: Cn1cc(C(=O)Nc2ccccc2Oc2cc(C(F)(F)F)ccc2C(F)(F)F)c(C(F)F)n1 [Compound 5]
- pest or weed control at 6.25 µg/mL [1]: 70%
- pest or weed control at 25 µg/mL [1]: 75%
- pest or weed control at 100 µg/mL [1]: 85%
- pest or weed control at 6.25 µg/mL [2]: 95%
- pest or weed control at 25 µg/mL [2]: 98%
- pest or weed control at 100 µg/mL [2]: 100%
- pest or weed control at 6.25 µg/mL [3]: 10%
- pest or weed control at 25 µg/mL [3]: 40%
- pest or weed control at 100 µg/mL [3]: 50%

SMILES: Cn1nc(C(F)F)c(C(=O)Nc2ccccc2Oc2ccc(C(F)(F)F)cc2C(F)(F)F)c1F [Compound 6]
- pest or weed control at 6.25 µg/mL [1]: 98%
- pest or weed control at 25 µg/mL [1]: 100%
- pest or weed control at 100 µg/mL [1]: 100%
- pest or weed control at 6.25 µg/mL [2]: 90%
- pest or weed control at 25 µg/mL [2]: 100%
- pest or weed control at 100 µg/mL [2]: 100%
- pest or weed control at 6.25 µg/mL [3]: 85%
- pest or weed control at 25 µg/mL [3]: 90%
- pest or weed control at 100 µg/mL [3]: 92%
- pest or weed control at 6.25 µg/mL ([4]; greenhouse pot, 6.25 mg/L): 50%
- pest or weed control at 25 µg/mL ([4]; greenhouse pot, 25 mg/L): 75%
- pest or weed control at 100 µg/mL ([4]; greenhouse pot, 100 mg/L): 98%

SMILES: Cn1cc(C(=O)Nc2ccccc2Oc2ccc(Cl)cc2Cl)c(C(F)F)n1 [Compound 7]
- pest or weed control at 1.5625 µg/mL [1]: 50%
- pest or weed control at 3.125 µg/mL [1]: 60%
- pest or weed control at 6.25 µg/mL [1]: 90%
- pest or weed control at 25 µg/mL [1]: 95%
- pest or weed control at 100 µg/mL [1]: 100%
- pest or weed control at 1.5625 µg/mL [2]: 90%
- pest or weed control at 3.125 µg/mL [2]: 100%
- pest or weed control at 6.25 µg/mL [2]: 96%
- pest or weed control at 25 µg/mL [2]: 98%
- pest or weed control at 100 µg/mL [2]: 100%
- pest or weed control at 1.5625 µg/mL [3]: 0%
- pest or weed control at 3.125 µg/mL [3]: 50%
- pest or weed control at 6.25 µg/mL [3]: 60%
- pest or weed control at 25 µg/mL [3]: 75%
- pest or weed control at 100 µg/mL [3]: 90%
- pest or weed control at 6.25 µg/mL ([4]; greenhouse pot, 6.25 mg/L): 30%
- pest or weed control at 25 µg/mL ([4]; greenhouse pot, 25 mg/L): 60%
- pest or weed control at 100 µg/mL ([4]; greenhouse pot, 100 mg/L): 89%

SMILES: Cn1cc(C(=O)Nc2ccccc2Oc2ccc(C(F)(F)F)cc2Cl)c(C(F)F)n1 [Compound 8]
- pest or weed control at 1.5625 µg/mL [1]: 85%
- pest or weed control at 3.125 µg/mL [1]: 98%
- pest or weed control at 6.25 µg/mL [1]: 95%
- pest or weed control at 25 µg/mL [1]: 99%
- pest or weed control at 100 µg/mL [1]: 100%
- pest or weed control at 1.5625 µg/mL [2]: 98%
- pest or weed control at 3.125 µg/mL [2]: 100%
- pest or weed control at 6.25 µg/mL [2]: 99%
- pest or weed control at 25 µg/mL [2]: 100%
- pest or weed control at 100 µg/mL [2]: 100%
- pest or weed control at 1.5625 µg/mL [3]: 70%
- pest or weed control at 3.125 µg/mL [3]: 90%
- pest or weed control at 6.25 µg/mL [3]: 65%
- pest or weed control at 25 µg/mL [3]: 75%
- pest or weed control at 100 µg/mL [3]: 94%
- pest or weed control at 6.25 µg/mL ([4]; greenhouse pot, 6.25 mg/L): 40%
- pest or weed control at 25 µg/mL ([4]; greenhouse pot, 25 mg/L): 60%
- pest or weed control at 100 µg/mL ([4]; greenhouse pot, 100 mg/L): 95%

SMILES: CC1COC(Cn2cncn2)(c2ccc(Oc3ccc(Cl)cc3)cc2Cl)O1 (stereo not drawn) [Difenoconazole]
- pest or weed control at 100 µg/mL ([4]; greenhouse pot, 100 mg/L): 80%

SMILES: CCCCc1c(C)nc(NCC)[nH]c1=O [Ethirimol]
- pest or weed control at 100 µg/mL [4]: 100%

SMILES: Cn1cc(C(=O)Nc2ccccc2-c2cc(F)c(F)c(F)c2)c(C(F)F)n1 [Fluxapyroxad]
- Control effect (%) Cucumber powdery mildew ([4]; greenhouse pot, 1.5625 mg/L): 55%
- Control effect (%) Cucumber powdery mildew ([4]; greenhouse pot, 6.25 mg/L): 95%
- Control effect (%) Cucumber powdery mildew ([4]; greenhouse pot, 25 mg/L): 100%
- Control effect (%) Cucumber powdery mildew ([4]; greenhouse pot, 100 mg/L): 100%
